Experimental data taken from patent publication US4710500A, “1-(4'-fluorophenyl)-3,5-substituted indoles useful in the treatment of psychic disorders and pharmaceutical compositions thereof” (H. Lundbeck A/S, priority 1985, dated 1987).
Where a name gives a salt, the structure may show the parent alone. Read-outs that look alike come from different tables or passages of the source.

How the values were obtained:
[1] = system: methylphenidate-induced gnawing; experiment: Methylphenidate antagonism; assay type: in vivo, mice; conditions: for ED50: Mus musculus; for MePh Antg. ED50 (sc): *ED50 from sc administration
in vivo = conditions: mouse, iv
Catalepsy = assay type: in vivo, rat; conditions: for Catalep. ED50 (sc) 1-6 h / Catalep. ED50 (sc) 24 h: *ED50 from sc administration
[2] = target: T1, dopamine (DA) D-2 receptors (Rattus norvegicus, UniProt P61169); experiment: 3H-spiroperidol binding, dopamine D-2 receptors in rat striatal membranes
T1 construct: DA D-2 receptors in rat striatal membranes; from tissue; host or cells: rat striatal membranes
Experimental: (§1) 4. ^3 H-spiroperidol bindings
The affinity of compounds to dopamine (DA) D-2 receptors and serotomin2 (5-HT2) receptors was determined by in vitro receptor binding technique.
Arnt, J., J. Hyttel and J.-J. Larsen: Acta pharmacol. et toxicol.

[3] = target: T2, serotomin2 (5-HT2) receptors (Rattus norvegicus, UniProt P14842); experiment: 3H-spiroperidol binding, 5-HT2 receptors in rat cortical membranes; conditions: in vitro, read-out: 3H-Spiroperidol bindings 5-HT2 receptors IC50
T2 construct: 5-HT2 receptors in rat cortical membranes; from tissue; host or cells: rat cortical membranes
Experimental: as §1
The affinity of compounds to dopamine (DA) D-2 receptors and serotomin2 (5-HT2) receptors was determined by in vitro receptor binding technique. Binding of ^3 H-spiroperidol to DA D-2 receptors in rat striatal membranes and to 5-HT2 receptors in rat cortical membranes was determined as described in detail by Arnt et al. (1984).
(§2) Arnt, J., J. Hyttel and J.-J. Larsen: Acta pharmacol. et toxicol. 55, 363-372, 1984.

5-HT2 receptor = target: T3, 5-HT2 receptor (Rattus norvegicus, UniProt P14842); experiment: Quipazine inhibition (head twitches); assay type: in vivo; conditions: sc 2 hours before quipazine 15 umol/kg sc
T3 construct: from tissue; host or cells: living rats (in vivo), CNS
Experimental: Quipazine and a number of other compounds, which increase 5-HT2 receptor activity in the CNS, induce a characteristic rapid shake (twitch) of the head. This response is inhibited by 5-HT2 receptor antagonists (Vetulani et al. 1980, Arnt et al. 1984).
The test compound or saline is injected subcutaneously 2 hours before subcutaneous injection of quipazine hemimalecate (15umol/kg). At least 3 dose groups, each consisting of at least 4 rats, are used. The rats are individually placed in observation cages (12×25 cm) and the number of head twitches are counted 30-40 min after quipazine administration. Inhibition of head twitches is expressed in per cent of the number of head twitches in the control group. ED 50 values are calculated by log-probit analysis.
Vetulani, J., B.B. Beduarczyk, K. Reichenberg and A. Rokost: Neuropharmacology 19, 155-158, […].
as §2

[4] = ip, read-out: MePh Antg. ED50(ip)
[5] = Rattus norvegicus, po, read-out: Catalep. ED50(po) 1-6 h
[6] = i.p. test substance, mice, methylphenidate s.c. 60 mg/kg
[7] = rat striatal membranes, in vitro, read-out: 3H-Spiroperidol bindings DA-2 receptors IC50
[8] = Rattus norvegicus, po, 24 h, read-out: Catalep. ED50(po) 24 h
[9] = ip, i.p. test substance, mice, methylphenidate s.c. 60 mg/kg, read-out: MePh Antg. ED50(ip)
[10] = read-out: Catalep. ED50(po) 1-6 h, po, rat, 1-6 h
[11] = read-out: Catalep. ED50(po) 24 h, po, rat, 24 h
[12] = Rattus norvegicus, sc, 24 h, read-out: Catalep. ED50 (sc) 24 h
[13] = Rattus norvegicus, sc, read-out: Catalep. ED50 (sc) 1-6 h
[14] = mice, methylphenidate s.c. 60 mg/kg

T3 sequence (P14842 whole entry): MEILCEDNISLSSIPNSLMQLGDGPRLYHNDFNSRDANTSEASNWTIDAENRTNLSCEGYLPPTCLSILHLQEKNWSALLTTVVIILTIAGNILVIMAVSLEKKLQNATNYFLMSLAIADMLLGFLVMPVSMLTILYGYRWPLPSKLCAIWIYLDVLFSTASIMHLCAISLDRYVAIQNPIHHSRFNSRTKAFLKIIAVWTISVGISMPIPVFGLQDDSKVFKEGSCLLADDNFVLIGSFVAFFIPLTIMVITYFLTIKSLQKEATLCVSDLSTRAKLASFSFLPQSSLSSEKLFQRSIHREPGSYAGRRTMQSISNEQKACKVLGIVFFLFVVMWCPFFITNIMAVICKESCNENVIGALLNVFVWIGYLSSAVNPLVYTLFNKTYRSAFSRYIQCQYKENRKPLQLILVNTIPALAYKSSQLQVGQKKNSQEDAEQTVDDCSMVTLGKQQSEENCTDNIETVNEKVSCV
T2 sequence (P14842 whole entry): as above
T1 sequence (P61169 whole entry): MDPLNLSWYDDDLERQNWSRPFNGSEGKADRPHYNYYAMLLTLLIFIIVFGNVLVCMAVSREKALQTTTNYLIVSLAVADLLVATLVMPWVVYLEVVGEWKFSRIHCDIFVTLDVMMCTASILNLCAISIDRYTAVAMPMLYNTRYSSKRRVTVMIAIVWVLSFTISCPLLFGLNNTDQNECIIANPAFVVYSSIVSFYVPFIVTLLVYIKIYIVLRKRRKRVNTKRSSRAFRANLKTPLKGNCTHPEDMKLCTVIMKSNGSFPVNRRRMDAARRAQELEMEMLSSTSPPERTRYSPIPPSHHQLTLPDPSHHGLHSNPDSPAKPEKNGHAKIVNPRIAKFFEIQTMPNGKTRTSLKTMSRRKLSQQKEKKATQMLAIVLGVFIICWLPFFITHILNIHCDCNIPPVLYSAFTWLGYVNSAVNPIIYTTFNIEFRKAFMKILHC

SMILES	IC50 [2]	IC50 [3]	Qvipaz. inh. ED50(sc) (5-HT2 receptor)	MePh Antg. ED50 (sc) [1, 14]	other results
CN(C)CCCN1c2ccccc2Sc2ccc(Cl)cc21 [Clorpromazine, reference compound]					ED50 [1, 4]: 23 µmol/kg; LD50 (in vivo): 120 to 180 µmol/kg; ED50 (Catalepsy; [5]): 70 µmol/kg
Cc1ccc2c(c1)c(C1=CCN(C)CC1)cn2-c1ccc(F)cc1.Cl [Lu 20-089, 1-(4'-Fluorophenyl)-5-methyl-3-(1-methyl-1,2,3,6-tetrahydropyridin-4-yl)-1H-indole, hydrochloride]	0.34 nM	1.8 nM	0.12 µmol/kg		MePh Antg. ED50(ip) [1, 6]: 0.18 µmol/kg; Catalep. ED50(po) 1-6 h (Catalepsy; po, rat, 1-6 h): 0.43 µmol/kg; Catalep. ED50(po) 24 h (Catalepsy; po, rat, 24 h): 6.5 µmol/kg
CN1CC=C(c2cn(-c3ccc(F)cc3)c3ccc(F)cc23)CC1.Cl [Lu 21-018, 5-Fluoro-1-(4'-fluorophenyl)-3-(1-methyl-1,2,3,6-tetrahydropyridin-4-yl)-1H-indole, hydrochloride]		3 nM	0.15 µmol/kg		IC50 [2, 7]: 0.74 nM; ED50 [1, 4]: 0.58 µmol/kg; ED50 (Catalepsy; [8]): > 6.9 µmol/kg; ED50 (Catalepsy; [5]): 2 µmol/kg
CN1CC=C(c2cn(-c3ccc(F)cc3)c3ccc(C(F)(F)F)cc23)CC1.O=C(O)C(=O)O [Lu 21-120, 1-(4'-Fluorophenyl)-3-(1-methyl-1,2,3,6-tetrahydropyridin-4-yl)-5-trifluoromethyl-1H-indole, oxalate]	0.61 nM	3.1 nM	0.03 µmol/kg		ED50 [1, 4]: 0.08 µmol/kg; ED50 (Catalepsy; [8]): 0.35 µmol/kg; ED50 (Catalepsy; [5]): 0.32 µmol/kg
CN1CCN(c2cn(-c3ccc(F)cc3)c3ccc(C(F)(F)F)cc23)CC1 [Lu 21-123, 1-(4'-Fluorophenyl)-3-(4-methylpiperazio)-5-trifluoromethyl-1H-indole, dihydrochloride]		6.7 nM			IC50 [2, 7]: 1.7 nM; ED50 [1, 9]: 0.09 µmol/kg; ED50 (Catalepsy; [10]): 0.08 µmol/kg; ED50 (Catalepsy; [11]): 0.62 µmol/kg
Fc1ccc(-n2cc(N3CCNCC3)c3cc(C(F)(F)F)ccc32)cc1 [Lu 21-153, 1-(4'-Fluorophenyl)-3-piperazino-5-trifluoromethyl-1H-indole]		6.7 nM	0.37 µmol/kg		IC50 [2, 7]: 3.7 nM; ED50 [1, 9]: 2 µmol/kg; ED50 (Catalepsy; [10]): 7.1 µmol/kg; ED50 (Catalepsy; [11]): 16 µmol/kg
Br.CN1CC=C(c2cn(-c3ccc(F)cc3)c3ccc(Cl)cc23)CC1 [Lu 22-117, 5-Chloro-1-(4'-fluorophenyl)-3-(1-methyl-1,2,3,6-tetrahydropyridin-4-yl)-1H-indole, hydrobromide]	1.2 nM	0.66 nM	0.052 µmol/kg		ED50 [1, 4]: 0.06 µmol/kg; ED50 (Catalepsy; [12]): > 0.37 µmol/kg; ED50 (Catalepsy; [13]): 0.09 µmol/kg
O=C1CCCN1CCN1CCN(c2cn(-c3ccc(F)cc3)c3ccc(C(F)(F)F)cc23)CC1 [Lu 22-133, 1-(4'-Fluorophenyl)-3-(4-(1-pyrrolidin-2-onylethyl)-1-piperazino)-5-trifluoromethyl-1H-indole]		1.9 nM	0.15 µmol/kg		ED50 [1, 9]: 0.82 µmol/kg; ED50 (Catalepsy; [12]): 1.7 µmol/kg; ED50 (Catalepsy; [13]): 0.66 µmol/kg
O=C1NCCN1CCN1CCN(c2cn(-c3ccc(F)cc3)c3ccc(C(F)(F)F)cc23)CC1 [Lu 23-001, 1-(4'-Flurophenyl)-3-(4-(2-imidazolidinon-1-ylethyl)-1-piperazino)-5-trifluoromethyl-1H-indole, dihydrobromide]		18 nM	0.047 µmol/kg		IC50 [2, 7]: 6.6 nM; MePh Antg. ED50(ip) [1, 6]: 0.22 µmol/kg; Catalep. ED50(po) 1-6 h (Catalepsy; po, rat, 1-6 h): 1.2 µmol/kg; Catalep. ED50(po) 24 h (Catalepsy; po, rat, 24 h): 2.6 µmol/kg
O=C1CCCN1CCN1CC=C(c2cn(-c3ccc(F)cc3)c3ccc([N+](=O)[O-])cc23)CC1 [Lu 23-024, 1-(4'-Fluorophenyl)-5-nitro-3-(1-pyrrolidin-2-onylethyl)-1,2,3,6-tetrahydropyridin-4-yl)-1H-indole, hydrochloride]		5.3 nM			MePh Antg. ED50(ip) [1, 6]: 0.65 µmol/kg; Catalep. ED50 (sc) 1-6 h (Catalepsy; rat, 1-6 h): 6.8 µmol/kg; Catalep. ED50 (sc) 24 h (Catalepsy; rat, 24 h): > 10 µmol/kg
O=C1NCCN1CCN1CCC(c2cn(-c3ccc(F)cc3)c3ccccc23)CC1 [Lu 23-086, 1-(4'-Fluorophenyl)-3-(1-(2--imidazolidinon-1-ylethyl)-4-piperidyl)-1H-indole]		2.9 nM	0.036 µmol/kg	> 98 µmol/kg	IC50 [2, 7]: 42 nM
O=C1OCCN1CCN1CC=C(c2cn(-c3ccc(F)cc3)c3ccc([N+](=O)[O-])cc23)CC1 [Lu 23-134, 1-(4'-Fluorophenyl)-5-nitro-3-(1-(2-oxazolidinon-3-ylethyl)-1,2,36-tetrahydropyridin-4-yl)-1H-indole, maleate]	2.8 nM	15 nM		9.0 µmol/kg	Catalep. ED50(po) 1-6 h (Catalepsy; po, rat, 1-6 h): 1.1 µmol/kg; Catalep. ED50(po) 24 h (Catalepsy; po, rat, 24 h): > 8.8 µmol/kg
O=C1NCCN1CCN1CC=C(c2cn(-c3ccc(F)cc3)c3ccc([N+](=O)[O-])cc23)CC1 [Lu 23-142, 1-(4'-Fluorophenyl)-3-(1-(2-imidazolidinon-1-ylethyl)-1,2,3,6-tetrahydropridin-4-yl)-5-nitro-1H-indole]		6.7 nM		2.6 µmol/kg	
O=[N+]([O-])c1ccc2c(c1)c(C1=CCN(CCO)CC1)cn2-c1ccc(F)cc1 [Lu 23-150, 1-(4'-fluoropheynl)-3-(1-(2-hydroxyethyl)-1,2,3,6-tetrahydropyridin-4-yl)-5-nitro-1H-indole]	4.7 nM	10 nM		0.07 µmol/kg	Catalep. ED50(po) 1-6 h (Catalepsy; po, rat, 1-6 h): 0.21 µmol/kg
OCCN1CC=C(c2cn(-c3ccc(F)cc3)c3ccc(C(F)(F)F)cc23)CC1 [Lu 23-156, 1-(4'-Fluorophenyl)-3-(1-(2-hydroxyethyl)-1,2,3,6-tetrahydropyridin-4-yl) -5-trifluoromethyl-1H-indole]	19 nM	15 nM	0.03 µmol/kg		ED50 ([1]; sc, read-out: MePh Antg. ED50 (sc)): 0.07 µmol/kg; ED50 (Catalepsy; [12]): 1.1 µmol/kg; ED50 (Catalepsy; [13]): < 0.19 µmol/kg
OCCN1CC=C(c2cn(-c3ccc(F)cc3)c3ccc(F)cc23)CC1 [Lu 23-160, 5-fluoro-1-(4'-flurophenyl)-3-(1-(2-hydroxyethyl)-1,2,3,6-tetrahydropyridin-4-yl)-1H-indole, oxalate]	11 nM	34 nM		3.4 µmol/kg	Catalep. ED50 (sc) 24 h (Catalepsy; rat, 24 h): 5.2 µmol/kg
Cc1nccn1CCN1CC=C(c2cn(-c3ccc(F)cc3)c3ccc(C(F)(F)F)cc23)CC1 [Lu 23-173, 1-(4'-Fluorophenyl)-3-(1-(2-methyl-1-imidazole-2-ethyl)-1,2,3,6-tetrahydropyridin-4-yl)-5-trifluoromethyl-1H-indole, difumarate]	42 nM	60 nM	> 7.1 µmol/kg	0.77 µmol/kg	Catalep. ED50 (sc) 1-6 h (Catalepsy; rat, 1-6 h): 1.8 µmol/kg
OCCCN1CC=C(c2cn(-c3ccc(F)cc3)c3ccc(F)cc23)CC1 [Lu 23-175, 5-Fluor-1-(4'-fluorophenyl)-3-(1-(3-hydroxypropyl)-1,2,3,6-tetrahydropyridin-4-yl)-1H-indole, oxalate]	11 nM	6.7 nM		0.32 µmol/kg	Catalep. ED50 (sc) 1-6 h (Catalepsy; rat, 1-6 h): 0.68 µmol/kg
CN1CC=C(c2cn(-c3ccsc3)c3ccc(Cl)cc23)CC1.O=C(O)/C=C\C(=O)O [Lu 24-001, 5-Chloro-3-(1-methyl-1,2,3,6-tetrahydropyridin-4-yl)-1-(3-thienyl)-1H-indole, maleate]		8.8 nM	0.19 µmol/kg		MePh Antg. ED50(ip) [1, 6]: 2.6 µmol/kg
CN1CC=C(c2cn(-c3ccccc3F)c3ccc([N+](=O)[O-])cc23)CC1 [Lu 24-003, 1-(2'-Fluorophenyl)-5-nitro-3-(1-methyl-1,2,3,6-tetrahydropyridin-4-yl)-1H-indole, maleat]	6 nM	14 nM		0.09 µmol/kg	
